From PubChem BioAssay AID256 (DTP/NCI, 2004)
Toxic doses and inconclusive results are not listed. The calls were made as follows: active = survival T/C of 150% or more; inactive = T/C below 125% in these data.

Test system: CD2F1 mice, L1210 leukemia ip, survival T/C
Experiment: NCI In Vivo Anticancer Drug Screen. Data for tumor model L1210 Leukemia (intraperitoneal) in CD2F1 (CDF1) mice
Details: higher = longer survival
Procedure, shortened: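 Compound-dosed mice with transplantable tumor versus matched vehicle controls; endpoint ratio T/C reported.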

[1] = endpoint: mean survival time, dose: 100.0 mg/kg/injection, schedule: Q04DX003 (ip), vehicle: saline with Tween-80
[2] = endpoint: mean survival time, dose: 200.0 mg/kg/injection, schedule: Q04DX003 (ip), vehicle: saline with Tween-80
[3] = endpoint: mean survival time, dose: 400.0 mg/kg/injection, schedule: Q04DX003 (ip), vehicle: saline with Tween-80
[4] = endpoint: mean survival time, dose: 100.0 mg/kg/injection, schedule: Q01DX009 (ip), vehicle: saline with Tween-80
[5] = endpoint: mean survival time, dose: 50.0 mg/kg/injection, schedule: Q04DX002 (ip), vehicle: saline with Tween-80
[6] = endpoint: mean survival time, dose: 100.0 mg/kg/injection, schedule: Q01DX001 (ip), vehicle: saline with Tween-80
[7] = endpoint: mean survival time, dose: 200.0 mg/kg/injection, schedule: Q01DX001 (ip), vehicle: saline with Tween-80

Measured: T/C

CCC1OC2CS(=O)(=O)CC2O1 (stereo unspecified)
inactive: [1] 96 % of control | [2] 96 % of control | [3] 96 % of control

Nc1ccc(-c2ccc(N)cc2O)c(O)c1
inactive: endpoint: mean survival time, dose: 50.0 mg/kg/injection, schedule: Q01DX009 (ip), vehicle: saline with Tween-80 98 % of control | [4] 95 % of control

C1=[N+](c2ccccc2)CCN1c1ccccc1
inactive: endpoint: mean survival time, dose: 75.0 mg/kg/injection, schedule: Q01DX001 (ip), vehicle: saline 95 % of control | endpoint: mean survival time, dose: 150.0 mg/kg/injection, schedule: Q01DX001 (ip), vehicle: saline 98 % of control

CC(C)c1nn[nH]n1
inactive: endpoint: median survival time, dose: 50.0 mg/kg/injection, schedule: Q01DX009 (ip), vehicle: saline + alcohol 93 % of control | endpoint: median survival time, dose: 100.0 mg/kg/injection, schedule: Q01DX009 (ip), vehicle: saline + alcohol 91 % of control | endpoint: median survival time, dose: 200.0 mg/kg/injection, schedule: Q01DX009 (ip), vehicle: saline + alcohol 100 % of control | endpoint: median survival time, dose: 400.0 mg/kg/injection, schedule: Q01DX009 (ip), vehicle: saline + alcohol 93 % of control

Cc1cc2c(-c3ccccc3)c(-c3ccccc3)oc(=O)c2cc1C
inactive: [1] 95 % of control | [2] 90 % of control | [3] 92 % of control

O=C1C=CC(=NS(=O)(=O)c2ccccc2)C=C1
inactive: endpoint: mean survival time, dose: 25.0 mg/kg/injection, schedule: Q01DX001 (ip), vehicle: other 93 % of control | endpoint: mean survival time, dose: 50.0 mg/kg/injection, schedule: Q01DX001 (ip), vehicle: other 95 % of control | endpoint: mean survival time, dose: 100.0 mg/kg/injection, schedule: Q01DX001 (ip), vehicle: other 104 % of control

N#C/C(=C(/C#N)c1ccccc1)c1ccccc1
inactive: [1] 96 % of control | [2] 94 % of control | [3] 88 % of control

c1ccc(C2OCC3(CO2)COC(c2ccccc2)OC3)cc1 (stereo unspecified)
inactive: [4] 88 % of control | [1] 94 % of control | endpoint: mean survival time, dose: 200.0 mg/kg/injection, schedule: Q01DX009 (ip), vehicle: saline with Tween-80 91 % of control | [2] 92 % of control | [3] 92 % of control

O=Cc1cc(Cl)c(O)c(Cl)c1
inactive: endpoint: mean survival time, dose: 100.0 mg/kg/injection, schedule: Q04DX003 (ip), vehicle: Klucel (hydroxypropylcellulose) (HPC) 94 % of control | endpoint: mean survival time, dose: 200.0 mg/kg/injection, schedule: Q04DX003 (ip), vehicle: Klucel (hydroxypropylcellulose) (HPC) 100 % of control

Cc1ccc(C(C)NC2=NCCO2)c(C)c1 (stereo unspecified)
inactive: endpoint: mean survival time, dose: 25.0 mg/kg/injection, schedule: Q04DX002 (ip), vehicle: saline with Tween-80 91 % of control | [5] 95 % of control

CCCC(C(=O)O)C(CCC)C(=O)O (stereo unspecified)
inactive: [1] 96 % of control | [2] 104 % of control | [3] 101 % of control

O=C(CCl)NC12Nc3ccccc3C1(Cc1ccccc1)CN(C1CCCCC1)C2=O (stereo unspecified)
inactive: [5] 95 % of control | [6] 100 % of control | [7] 86 % of control | endpoint: mean survival time, dose: 200.0 mg/kg/injection, schedule: Q04DX002 (ip), vehicle: saline with Tween-80 89 % of control

Cc1ccc(C2(SCC(N)C(=O)O)c3ccccc3-c3ccccc32)cc1 (stereo unspecified)
inactive: endpoint: mean survival time, dose: 25.0 mg/kg/injection, schedule: Q01DX009 (ip), vehicle: saline 95 % of control | endpoint: mean survival time, dose: 50.0 mg/kg/injection, schedule: Q01DX009 (ip), vehicle: saline 95 % of control | endpoint: mean survival time, dose: 100.0 mg/kg/injection, schedule: Q01DX009 (ip), vehicle: saline 97 % of control | endpoint: mean survival time, dose: 200.0 mg/kg/injection, schedule: Q01DX009 (ip), vehicle: saline 107 % of control

Clc1cc(Cl)c(OCC#CI)cc1Cl
inactive: endpoint: mean survival time, dose: 50.0 mg/kg/injection, schedule: Q01DX001 (ip), vehicle: carboxymethylcellulose (CMC) 91 % of control | endpoint: mean survival time, dose: 100.0 mg/kg/injection, schedule: Q01DX001 (ip), vehicle: carboxymethylcellulose (CMC) 102 % of control | endpoint: mean survival time, dose: 200.0 mg/kg/injection, schedule: Q01DX001 (ip), vehicle: carboxymethylcellulose (CMC) 91 % of control | endpoint: mean survival time, dose: 400.0 mg/kg/injection, schedule: Q01DX001 (ip), vehicle: carboxymethylcellulose (CMC) 89 % of control

CC1(C)N=C(N)N=C(N)N1c1cccc([N+](=O)[O-])c1
inactive: endpoint: mean survival time, dose: 100.0 mg/kg/injection, schedule: Q04DX002 (ip), vehicle: saline with Tween-80 96 % of control

Cc1ccc(N=C2C=CC(=O)O2)cc1
inactive: [1] 98 % of control | [2] 104 % of control | [3] 101 % of control

CC1(Br)C(C)(Br)C(C)(Br)C(C)(Br)C(C)(Br)C1(C)Br (stereo unspecified)
inactive: [6] 96 % of control | [7] 101 % of control | endpoint: mean survival time, dose: 400.0 mg/kg/injection, schedule: Q01DX001 (ip), vehicle: saline with Tween-80 101 % of control
